Assay results reported in ChEMBL document CHEMBL4270556, “Current progress on antioxidants incorporating the pyrazole core” (Eur J Med Chem, 2018).

Assays:
[1] = Antioxidant activity assessed as DPPH radical scavenging activity after 20 mins by UV absorbance method relative to control; type: functional
[2] = Antioxidant activity assessed as inhibition of lipid peroxidation relative to control; type: functional; conditions: dose or concentration not given here
[3] = Antioxidant activity assessed as inhibition of DPPH radical at 100 ug/ml relative to control; type: functional
[4] = Antioxidant activity assessed as DPPH radical scavenging activity at 30 to 50 ug/ml relative to control; type: functional
[5] = Antioxidant activity assessed as DPPH radical scavenging activity at 10 ug/ml after 20 mins by UV absorbance method relative to control; type: functional
[6] = Antioxidant activity assessed as radical scavenging activity at 30 to 50 ug/ml relative to control; type: functional
[7] = Antioxidant activity assessed as nitric oxide radical scavenging activity at 100 mM after 150 mins in presence of sodium nitroprusside relative to control; type: functional
[8] = Antioxidant activity assessed as ferric ion reducing activity after 20 mins in presence of potassium ferricyanide by FRAP assay relative to control; type: functional; design: scale not given: the % may be the effect or the level left
[9] = Antioxidant activity assessed as DPPH radical scavenging activity at 100 mM after 30 mins relative to control; type: functional
[10] = Antioxidant activity assessed as DPPH radical scavenging activity at 10^-3 M relative to control; type: functional
[11] = Antioxidant activity assessed as DPPH radical scavenging activity at 80 ug/ml relative to control; type: functional
[12] = Antioxidant activity assessed as inhibition of H2O2-induced lipid peroxidation; type: functional

## Cc1ccc(-n2nc(-c3ccccc3)cc2Cn2cnc3c(N4CCOCC4)ncnc32)cc1
[1]
  Activity: 62 to 79%
[2]
  inhibition: 99%

## CCOC(=O)c1c(C)nn(-c2cccc(Cl)c2)c1-c1ccc(N(C)C)cc1
[3]
  inhibition: 22.2 to 49.9%

## COc1ccc(C2C(c3ccccc3)=NN(c3ccccc3)C2C#N)cc1 (configuration not stated)
[4]
  Activity: < 45%

## CCOC(=O)c1c(C)nn(-c2ccccc2)c1-c1ccc([N+](=O)[O-])cc1
[3]
  inhibition: 22.2 to 49.9%

## COc1ccc(C2CC(Cn3c4ccccc4c4nc5cc(Cc6ccc7nc(-c8ccccc8)c(-c8ccccc8)nc7c6)ccc5nc43)=NN2C(=O)c2ccc(Cl)cc2)cc1 (configuration not stated)
[5]
  Activity: 59.4%

## CCOC(=O)c1c(C)nn(-c2ccc(C)cc2C)c1-c1ccc(N(C)C)cc1
[3]
  inhibition: 22.2 to 49.9%

## c1ccc(C2=NN(c3ccccc3)C(Cn3cnc4c(N5CCCC5)ncnc43)C2)cc1 (configuration not stated)
[1]
  Activity: 13 to 24%
[2]
  inhibition: 73%

## COc1ccc(C2=NN(c3ccccc3)[C@H]3C(=O)N(c4ccccc4)C(=O)[C@@H]23)cc1
[6]
  Activity: < 55%

## Cc1ccc(-n2nc(-c3ccccc3)cc2Cn2cnc3c(Cl)ncnc32)cc1
[1]
  Activity: 60%

## O=C(/C=C/c1cn(-c2ccccc2)nc1-c1ccc(Br)cc1)c1cccc(NC(=O)c2ccc(F)cc2)c1
[7]
  Activity: 32.4 to 77.9%
[8]
  Activity: 44.4 to 55.5%
[9]
  Activity: 36.8 to 42.3%

## O=C1[C@H]2C(c3ccc(Cl)cc3)=NN(c3ccccc3)[C@H]2C(=O)N1c1ccccc1
[6]
  Activity: < 40%

## Clc1ncnc2c1ncn2CC1CC(c2ccccc2)=NN1c1ccccc1 (configuration not stated)
[1]
  Activity: 13 to 24%
[2]
  inhibition: 94%

## NS(=O)(=O)c1ccc(N2N=C(c3ccco3)CC2c2cnn(-c3ccccc3)c2)cc1 (configuration not stated)
[10]
  Activity: 23%

## O=C1O[C@H]([C@@H](O)CO)C(O)=C1O
[7]
  Activity: 32.3%
[8]
  Activity: 42.4%
[5]
  Activity: 40%
other
  Activity: 92.7%
[3]
  inhibition: 28.6%
[9]
  Activity: 43%

## Nc1n[nH]c(-c2ccccc2)c1-c1nc2c(cnn2-c2ccccc2)c(=O)[nH]1
other
  Activity: 92.3%

## Cc1c(C)c2c(c(C)c1O)CCC(C)(C(=O)O)O2 (configuration not stated)
[2]
  inhibition: 64%

## CCOC(=O)c1c(C)nn(-c2ccc(C)cc2C)c1-c1ccc([N+](=O)[O-])cc1
[3]
  inhibition: 22.2 to 49.9%

## CCOC(=O)C1=C(N)Oc2c(c(C)nn2C(=O)c2ccncc2)C1c1c(-c2ccccc2)[nH]c2ccc(Cl)cc12 (configuration not stated)
[11]
  Activity: 76.7%

## O=C(/C=C/c1cn(-c2ccccc2)nc1-c1ccc(Cl)cc1)c1cccc(NC(=O)c2ccc(F)cc2)c1
[7]
  Activity: 32.4 to 77.9%
[8]
  Activity: 44.4 to 55.5%

## c1ccc(C2=NN(c3ccccc3)C(Cn3cnc4c(N5CCCCC5)ncnc43)C2)cc1 (configuration not stated)
[1]
  Activity: 13 to 24%
[2]
  inhibition: 72%

## COc1ccc(C2C(c3ccc(OC)c(OC)c3)=NN(c3ccccc3)C2C#N)cc1 (configuration not stated)
[4]
  Activity: 32%

## O=C(/C=C/c1cn(-c2ccccc2)nc1-c1ccccc1)c1cccc(NC(=O)c2ccc(F)cc2)c1
[7]
  Activity: 32.4 to 77.9%
[8]
  Activity: 44.4 to 55.5%
[9]
  Activity: 36.8 to 42.3%

## CCOC(=O)c1sc(Nc2ccccc2)c(-c2nc3c(cnn3-c3ccccc3)c(=O)[nH]2)c1N
other
  Activity: 92%

## Cc1ccc(N2N=C(c3ccccc3)CC2Cn2cnc3c(N4CCCCC4)ncnc32)cc1 (configuration not stated)
[1]
  Activity: 13 to 24%

## c1ccc(C2=NN(c3ccccc3)C(Cn3cnc4c(N5CCOCC5)ncnc43)C2)cc1 (configuration not stated)
[1]
  Activity: 13 to 24%
[2]
  inhibition: 100%

## Cc1ccc(-n2nc(-c3ccccc3)cc2Cn2cnc3c(N4CCCCC4)ncnc32)cc1
[1]
  Activity: 62 to 79%

## O=S(=O)(NC(=S)Nc1ccc(F)cc1)c1ccc(N2N=C(c3ccco3)CC2c2cnn(-c3ccccc3)c2)cc1 (configuration not stated)
[10]
  Activity: 27%

## O=C(c1ccc(Cl)cc1)N1N=C(Cn2c3ccccc3c3nc4cc(Cc5ccc6nc(-c7ccccc7)c(-c7ccccc7)nc6c5)ccc4nc32)CC1c1ccc(F)cc1 (configuration not stated)
[5]
  Activity: 40.6%

## O=C1[C@H]2C(c3ccccc3)=NN(c3ccccc3)[C@H]2C(=O)N1c1ccccc1
[6]
  Activity: < 55%

## COc1ccc(C2C(c3ccc(Br)cc3)=NN(c3ccccc3)C2C#N)cc1 (configuration not stated)
[4]
  Activity: < 60%

## CC(C)(C)OC(=O)N1CCN(c2ncnc3c2ncn3CC2CC(c3ccccc3)=NN2c2ccccc2)CC1 (configuration not stated)
[1]
  Activity: 13 to 24%
[2]
  inhibition: 54%

## Cc1ccc(-n2nc(-c3ccccc3)cc2Cn2cnc3c(N4CCCC4)ncnc32)cc1
[1]
  Activity: 43 to 44%
[2]
  inhibition: 87%

## COc1ccc(C2CC(Cn3c4ccccc4c4nc5cc(Cc6ccc7nc(-c8ccccc8)c(-c8ccccc8)nc7c6)ccc5nc43)=NN2C(=O)c2ccccc2)cc1 (configuration not stated)
[5]
  Activity: 50.5%

## CCOC(=O)c1c(C)nn(-c2cccc(Cl)c2)c1-c1ccc(Cl)cc1
[3]
  inhibition: 22.2 to 49.9%

## CC1=NN(C(=O)c2ccccc2O)C(O)(C(F)(F)F)C1 (configuration not stated)
[12]
  IC50: < 15 µM
